From patent US10111900B2, “β-glucan methods and compositions that affect the tumor microenvironment” (Biothera, Inc., priority 2014, dated 2018) come the findings set out here.

The test system of assay [1] is M2 macrophages. The assay can be described thus: Flow cytometry of M1/M2 markers on M2 macrophages derived from β-glucan-treated whole blood. The format is cell-based, human. To be noted: for expression of CD163: M2 macrophages, vs vehicle. Here is the method: CD14^+ monocytes from human whole blood were enriched using Ficoll gradient and magnetic bead separation. Enriched monocytes (5×10^5 cells per mL) were then cultured in either M1-polarizing (XVivo 10 media (Lonza Group) supplemented with 5% autologous serum and 100 ng/mL recombinant human granulocyte macrophage colony-stimulating factor (rhGM-CSF) (R&D Systems) or M2-polarizing (XVivo 10 media supplemented with 10% autologous serum and 50 ng/mL recombinant human macrophage colony-stimulating factor (rhM-CSF) (R&D Systems) conditions for 6 days. In experiments performed to evaluate the effect of β-glucan, whole blood was first incubated with vehicle (sodium citrate buffer) or 25 μg/mL soluble β-glucan for 2 hours at 37° C. and then the monocytes were isolated and differentiated. Morphology was checked before macrophages were harvested for phenotypic analysis. Culture medium of the day 6 macrophage culture (MCM) was collected, spun down to remove contaminated cell pellet and then frozen down for subsequent cytokine analysis by ELISA or used to setup a co-culture with CD3 & CD28-stimulated CD4 T cells (MCM-CD4 T) for evaluation of either surface markers or CD4 T cell proliferation. The macrophages were used to setup a co-culture with CD3 & CD28- or CD3 only-stimulated CD4 T cells (Mac-CD4 T) on day 6 for evaluation of either surface marker modulation or effect on CD4 T cell proliferation. For Mac-CD4 T cell proliferation study, M1 or M2 macrophages were cultured with CD3 & CD28- or CD3 only-stimulated, CFSE-labeled, autologous CD4 T cells at a 1:10 ratio. T cell proliferation was measured at the end of the experiment (day 9-day 11) by flow cytometry, and results are graphically shown as CFSE-dilution peaks. The assessment of CD3-only stimulated T cells was always done on day 11. Quantitative results were reported as the Division Index (the average number of cell divisions a population underwent) calculated for each of the triplicate wells in each of the culture conditions. Culture supernatants of Mac-CD4 T cell co-cultures were collected for subsequent cytokine analysis.
M1 and M2 macrophages from vehicle- or […] whole blood were prepared as described above. […] In addition, surface expression of CD86 was enhanced as well as both protein and mRNA levels of PD-L1 (FIG. 2B).
Expression of a panel of markers was evaluated by flow cytometry for vehicle- and β-glucan-treated, high binder-derived M1 and M2 macrophages (CD163 was evaluated twice).
CD163 and CD86 were evaluated by flow cytometry for vehicle- and β-glucan-treated, low binder-derived M1 and M2 macrophages.
On the technique in general: In flow cytometry, cells or beads pass a laser one at a time.

For a further assay, the system named is CD4 T cells. Briefly: MCM-CD4 T cell proliferation and surface marker study. The format is cell-based, human. Here is the method: For MCM-CD4 T cell proliferation study, CD3 & CD28-stimulated, CFSE-labeled CD4 T cells were cultured with 50% MCM. T cell proliferation was measured on day 11 as described above. Culture supernatants of the MCM-CD4 T cell co-culture were collected for subsequent cytokine analysis. MCM-CD4 T cell surface marker evaluation was performed as described above.
To determine whether soluble factors secreted from β-glucan-treated M2 macrophages are required, measurements were carried out of CD4 T cell proliferation co-cultured with β-glucan-treated M2 macrophages MCM (50% of volume) and surface activation marker modulation on T cells incubated with the MCM were observed. FIG. 9 is representative of 2 different experiments. […] In addition, the CD4 T cells cultured in vehicle- and β-glucan-treated M2 macrophage MCM were evaluated for modulation of co-stimulatory or co-inhibitory molecules (CD80, CD28, CTLA-4, 4-1BB and PD-1).
To test this, M2 macrophages were prepared as described above with a few modifications. The whole blood of a low binder was spun down to remove the plasma and then the cells were reconstituted with serum obtained from a high binder. The reconstituted blood was treated with vehicle or β-glucan (25 μg/mL) for 2 hours at 37° C. The monocytes were evaluated for binding by using anti-β-glucan specific monoclonal antibody and subsequent flow cytometry.

Assay [2] concerns M2 macrophages. Briefly: Mac-CD4 T co-culture, surface marker modulation on macrophages. The format is cell-based, human. To be noted: relative to vehicle-treated M2 macrophages. Here is the method: For evaluation of Mac-CD4 T cell surface marker modulation, M2 macrophages were co-cultured with T cells as described above and cells were harvested on day 8, day 9 and day 10 to perform surface receptor staining on both M2 macrophages and T cells.
Changes in surface marker expression on both macrophages and CD3 & CD28-stimulated T cells were also measured. Vehicle- and β-glucan-treated M2 macrophages and CD T cells from the co-cultures were evaluated by flow cytometry for the modulation of co-stimulatory or co-inhibitory molecules. FIG. 8C and Table 9 are representative results from 2 different experiments.

A further assay concerns CD4 and CD8 T cells. Briefly: T cell proliferation and activation of PBMCs in plasma from β-glucan-treated whole blood. The format is cell-based, human. Here is the method: To obtain plasma, whole blood was treated for 6 hours with 25 μg/mL β-glucan or vehicle, spun down and the plasma removed. 50,000 autologous CFSE-labeled PBMCs were cultured in the treated plasma for 3 days in the presence of 50,000 T cell activating CD3/28 beads (DYNABEADS Human T-Activator CD3/CD28 for T Cell Expansion and Activation). At the end of the culture, PBMCs were stained with CD4 and CD8 and T cell proliferation was measured by CFSE dilution.
Next, to show the effect of soluble β-glucan on CD4 and CD8 cell activation, the T cell proliferation assay described above was again carried out. At day 3, however, the cells were stained for markers of activation including Granzyme B production and CD25 upregulation.

The test system of the next assay is CD33+ MDSC. Briefly: MDSC in peripheral blood of a case study subject treated with IMPRIME PGG. It is filed as in vivo, human. To be noted: within hours post-infusion, cycle 8, day 1. An excerpt:
Blood was drawn at various times from a case study subject undergoing treatment with IMPRIME PGG and analyzed for the presence of MDSC. The first blood draw was done pre-infusion, cycle 8, day 1. […] A second blood draw was done post-infusion, cycle 8, day 1. […] The last blood sample was drawn pre-infusion, cycle 8, day 15. The CD33^+ MDSC are again present in the peripheral blood.

Setting [3] is: β-glucan-treated M2 macrophages vs vehicle.

For the substance “β(1,6)-[poly-(1,3)-D-glucopyranosyl]-poly-β(1,3)-D-glucopyranose [β-glucan]”, in the assay with M2 macrophages [1] (high binders), the “expression of CD163” value is reported as “lower expression”. Also, the “expression of CD163” value in the assay with M2 macrophages [1] (low binders) was “remained the same”. For the same substance, in the assay on M2 macrophages [1] (setting [3]), the “mean fluorescence intensity (MFI) of CD163” value is given as “downmodulated”; the “protein and mRNA levels of PD-L1” value was “enhanced”; the “surface expression of CD86” value is recorded as “enhanced”. The “T cell markers (CD80, CD28, CTLA-4, 4-1BB and PD-1)” value in the assay with CD4 T cells (CD4 T cells cultured in M2 macrophage MCM (data not shown)) is recorded as “no change”. Moreover, the “CD4 T cell proliferation” value with CD4 T cells (MCM of M2 macrophages of a low binder crossed-over with high binder's serum, vs vehicle) is reported as “significantly higher ability to enhance”. Also, in the assay with CD4 T cells (β-glucan-treated M2 macrophage MCM (50% of volume) vs vehicle MCM), the “CD4 T cell proliferation” value is reported as “significantly higher ability to enhance”. Also, in the assay with M2 macrophages [2], the “Change in MFI on Macrophages: 4-1BBL” value was “No change”, the “Change in MFI on Macrophages: CD40” value is “No change”, the “Change in MFI on Macrophages: CD80” value is listed as “No change” and the “Change in MFI on Macrophages: CD172” value was “No change”. In addition, in the assay on M2 macrophages [2], the “Change in MFI on Macrophages: CD209” value is “No change” and the “Change in MFI on Macrophages: OX40” value was “No change”. The “Change in MFI on Macrophages: HLA-DR” value in the assay on M2 macrophages [2] (co-culture with CD3 & CD28-stimulated T cells) is on record as “No change”. In addition, the “Change in MFI on Macrophages: CD86” value with M2 macrophages [2] (day 8) is reported as “relative increase”. Moreover, the “Change in MFI on Macrophages: PD-L1 (CD274)” value in the assay on M2 macrophages [2] (day 9) was “relative increase”. Further, the “CD4 and CD8 proliferation” value in the assay with CD4 and CD8 T cells (plasma from whole blood treated 6 hours with 25 μg/mL β-glucan, vs vehicle, CD3/28 beads, 3 days) is given as “significant enhancement”. The “CD4 and CD8 cell activation (Granzyme B production, CD25 upregulation)” value in the assay with CD4 and CD8 T cells (β-glucan-treated plasma, day 3) is reported as “enhances”. In addition, the “CD33+ MDSC in peripheral blood” value in the assay with CD33+ MDSC is listed as “transiently disappear”.
